Measured values taken from PubChem BioAssay (NCI).
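These data come from cells grown in 96-well plates and exposed to compound for 48 hours at five concentrations. GI50: concentration for 50% inhibition of growth. At the TGI there is no net growth.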

What was measured:
Test in all cases: NCI anticancer screen, dose series, 48 h
SK-MEL-28 melanoma = system: SK-MEL-28 melanoma
OVCAR-8 ovarian = system: OVCAR-8 ovarian
NCI-H460 lung = system: NCI-H460 lung
UO-31 renal = system: UO-31 renal
OVCAR-3 ovarian = system: OVCAR-3 ovarian
MCF7 breast = system: MCF7 breast
NCI/ADR-RES ovarian = system: NCI/ADR-RES ovarian
SK-OV-3 ovarian = system: SK-OV-3 ovarian
OVCAR-5 ovarian = system: OVCAR-5 ovarian
A549 NSCLC = system: A549 NSCLC
U251 CNS = system: U251 CNS
NCI-H522 lung = system: NCI-H522 lung
HCT-116 colon = system: HCT-116 colon
M14 melanoma = system: M14 melanoma
HOP-62 NSCLC = system: HOP-62 NSCLC
786-0 renal = system: 786-0 renal
CCRF-CEM leukemia = system: CCRF-CEM leukemia
UACC-257 melanoma = system: UACC-257 melanoma
K-562 leukemia = system: K-562 leukemia
HL-60(TB) leukemia = system: HL-60(TB) leukemia
BT-549 breast = system: BT-549 breast
MDA-MB-468 breast = system: MDA-MB-468 breast
SF-539 CNS = system: SF-539 CNS
NCI-H23 lung = system: NCI-H23 lung
CAKI-1 renal = system: CAKI-1 renal
HCC-2998 colon = system: HCC-2998 colon
SK-MEL-2 melanoma = system: SK-MEL-2 melanoma

Work on `CN(C)c1nc(NCCNS(=O)(=O)c2ccc(C3=Nc4c(N)nc(N)nc4NC(c4ccc(C(F)(F)F)cc4)C3)cc2)nc(Nc2ccc(F)cc2)n1` (centres undefined) yielded a GI50 (SK-MEL-28 melanoma) of 15 µM, a TGI (SK-MEL-28 melanoma) greater than 86 µM and a GI50 (OVCAR-8 ovarian) of 26.1 µM. It also gave a TGI (OVCAR-8 ovarian) greater than 86 µM, a GI50 (NCI-H460 lung) of 5.49 µM and a TGI (NCI-H460 lung) greater than 86 µM. For the same molecule, the GI50 (UO-31 renal) was greater than 86 µM, the TGI (UO-31 renal) was greater than 86 µM and the GI50 (OVCAR-3 ovarian) was 11.9 µM. It also gave a TGI (OVCAR-3 ovarian) greater than 86 µM, a GI50 (MCF7 breast) of 2.87 µM and a TGI (MCF7 breast) of 21 µM. The GI50 (NCI/ADR-RES ovarian) was greater than 86 µM, the TGI (NCI/ADR-RES ovarian) was greater than 86 µM and the GI50 (SK-OV-3 ovarian) was greater than 86 µM. The TGI (SK-OV-3 ovarian) was greater than 86 µM, the GI50 (OVCAR-5 ovarian) was 19.9 µM and the TGI (OVCAR-5 ovarian) was greater than 86 µM. The GI50 (A549 NSCLC) was 55 µM, the TGI (A549 NSCLC) was greater than 86 µM and the GI50 (U251 CNS) was 5.52 µM. The TGI (U251 CNS) was greater than 86 µM, the GI50 (NCI-H522 lung) was 17.8 µM and the TGI (NCI-H522 lung) was 44.8 µM. It also gave a GI50 (HCT-116 colon) of 5.1 µM, a TGI (HCT-116 colon) greater than 86 µM and a GI50 (M14 melanoma) of 7.87 µM. The TGI (M14 melanoma) was greater than 86 µM, the GI50 (HOP-62 NSCLC) was 31.4 µM and the TGI (HOP-62 NSCLC) was greater than 86 µM. It also gave a GI50 (786-0 renal) of 10.1 µM, a TGI (786-0 renal) of 39.8 µM and a GI50 (CCRF-CEM leukemia) of 3.24 µM. It also gave a TGI (CCRF-CEM leukemia) greater than 86 µM, a GI50 (UACC-257 melanoma) of 23.3 µM and a TGI (UACC-257 melanoma) greater than 86 µM. For the same molecule, the GI50 (K-562 leukemia) was 3.51 µM, the TGI (K-562 leukemia) was greater than 86 µM and the GI50 (HL-60(TB) leukemia) was 4.07 µM. For the same molecule, the TGI (HL-60(TB) leukemia) was greater than 86 µM, the GI50 (BT-549 breast) was 11.8 µM and the TGI (BT-549 breast) was 32.6 µM. It also gave a GI50 (MDA-MB-468 breast) of 2.67 µM, a TGI (MDA-MB-468 breast) of 11.7 µM and a GI50 (SF-539 CNS) of 6.22 µM. It also gave a TGI (SF-539 CNS) of 24.7 µM, a GI50 (NCI-H23 lung) of 27.7 µM and a TGI (NCI-H23 lung) greater than 86 µM. It also gave a GI50 (CAKI-1 renal) of 36.8 µM, a TGI (CAKI-1 renal) greater than 86 µM and a GI50 (HCC-2998 colon) of 4.72 µM. For the same molecule, the TGI (HCC-2998 colon) was 25.9 µM, the GI50 (SK-MEL-2 melanoma) was 10.8 µM and the TGI (SK-MEL-2 melanoma) was 24.7 µM.
